Results reported in PMC3334838 (Chemistry & biology, 2012).

What was measured:
RAW 264.7 cells = test: Osteoclast differentiation assay; assay type: cell-based, mouse
Erk2 [1] = target: T1, Erk2 (Homo sapiens, UniProt P28482); test: KINOMEscan displacement assay, Erk2; assay type: binding; conditions: 10 μM inhibitor
Erk2 [2] = target: T1, Erk2; test: Erk2 in vitro kinase assay; assay type: biochemical
[3] = test system: Rat-2 cells expressing c-Fes-L145P; test: Soft-agar colony formation, Rat-2 fibroblasts transformed by c-Fes-L145P; assay type: cell-based, rodent
[4] = test system: Rat-2 cells expressing c-Fes/v-Fps chimera; test: Soft-agar colony formation, Rat-2 fibroblasts transformed by c-Fes/v-Fps chimera; assay type: cell-based, rodent
[5] = test system: Rat-2 cells transformed by Hck-YF; test: Soft-agar colony formation, Rat-2 fibroblasts transformed by active Hck; assay type: cell-based, rodent
[6] = test system: control Rat-2 cells expressing GFP alone; test: Growth of control Rat-2 cells in monolayer culture; assay type: cell-based, rodent
[7] = target: Hck-TMYF gatekeeper mutant (Homo sapiens, UniProt P08631, T333M/Y522F); assay type: cell-based
Sequence of Hck-TMYF gatekeeper mutant (P08631 22-526 T333M/Y522F limits assumed): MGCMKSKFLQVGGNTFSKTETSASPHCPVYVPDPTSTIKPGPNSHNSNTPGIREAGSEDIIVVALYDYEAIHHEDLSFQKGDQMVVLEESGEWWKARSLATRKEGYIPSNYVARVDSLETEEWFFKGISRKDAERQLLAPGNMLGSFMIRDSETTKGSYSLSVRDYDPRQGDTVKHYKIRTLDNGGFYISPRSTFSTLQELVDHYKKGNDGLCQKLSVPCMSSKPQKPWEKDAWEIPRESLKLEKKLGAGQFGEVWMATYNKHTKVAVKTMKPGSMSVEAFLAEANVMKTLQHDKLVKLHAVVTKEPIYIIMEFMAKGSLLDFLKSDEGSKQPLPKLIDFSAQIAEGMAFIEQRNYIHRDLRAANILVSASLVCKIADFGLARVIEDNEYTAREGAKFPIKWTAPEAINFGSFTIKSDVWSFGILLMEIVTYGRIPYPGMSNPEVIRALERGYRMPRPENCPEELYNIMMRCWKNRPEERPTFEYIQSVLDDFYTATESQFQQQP

Hck-YF = Hck-YF (Homo sapiens, UniProt P08631, Y522F); test: Kinase autophosphorylation in transformed Rat-2 cells by immunoblotting, Hck-YF; assay type: cell-based
Sequence of Hck-YF (P08631 22-526 Y522F limits assumed): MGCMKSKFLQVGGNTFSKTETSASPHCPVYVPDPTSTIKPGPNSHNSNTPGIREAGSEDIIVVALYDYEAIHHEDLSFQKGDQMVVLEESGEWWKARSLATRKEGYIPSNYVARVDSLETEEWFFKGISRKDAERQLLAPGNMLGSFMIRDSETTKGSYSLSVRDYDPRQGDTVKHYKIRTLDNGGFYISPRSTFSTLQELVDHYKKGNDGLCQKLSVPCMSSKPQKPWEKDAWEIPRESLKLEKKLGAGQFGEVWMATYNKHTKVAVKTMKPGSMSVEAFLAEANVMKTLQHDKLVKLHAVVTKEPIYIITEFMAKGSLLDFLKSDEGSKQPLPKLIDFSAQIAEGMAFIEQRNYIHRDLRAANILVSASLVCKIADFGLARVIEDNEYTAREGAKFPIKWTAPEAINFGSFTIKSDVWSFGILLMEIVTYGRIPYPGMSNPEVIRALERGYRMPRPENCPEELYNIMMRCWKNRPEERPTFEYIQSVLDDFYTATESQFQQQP

[8] = test system: bone marrow-derived macrophages (BMM); test: Osteoclast differentiation assay; assay type: cell-based, mouse; conditions: M-CSF and RANKL
[9] = Rat2, read-out: inhibition of soft-agar colony formation

T1 sequence (P28482 whole entry): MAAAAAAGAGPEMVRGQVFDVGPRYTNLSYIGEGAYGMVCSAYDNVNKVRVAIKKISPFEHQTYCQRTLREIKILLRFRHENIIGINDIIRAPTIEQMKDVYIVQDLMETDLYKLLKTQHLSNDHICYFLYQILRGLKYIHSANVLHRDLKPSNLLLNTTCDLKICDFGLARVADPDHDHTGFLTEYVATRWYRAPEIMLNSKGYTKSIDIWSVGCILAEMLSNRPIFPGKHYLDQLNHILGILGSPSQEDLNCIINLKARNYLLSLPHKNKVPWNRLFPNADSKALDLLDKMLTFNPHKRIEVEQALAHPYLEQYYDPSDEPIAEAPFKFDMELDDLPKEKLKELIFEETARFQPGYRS

Compound	effect on osteoclast differentiation (RAW 264.7 cells; RAW 264.7, 1 μM or 10 μM)	displacement score for Erk2 (Erk2 [1])	potency towards Erk in an in vitro kinase assay (Erk2 [2])	inhibition at 0.1 µM [3, 9] [%]	soft-agar colony growth ([3]; c-Fes transformants, 1 μM)	concentration giving complete inhibition of soft-agar colony formation ([3]; c-Fes-L145P) [nM]	inhibition at 0.1 µM [4, 9] [%]	concentration giving complete inhibition of soft-agar colony formation ([4]; c-Fes/v-Fps) [nM]	inhibition of Hck-mediated soft-agar colony formation ([5]; 200 nM)	soft-agar colony growth ([5]; Hck transformants, 1 μM)	growth of control Rat-2 cells in monolayer culture ([6]; 100 nM)	reduction of growth of control Rat-2 cells expressing GFP alone ([6]; 1 μM, after 72 hrs) [%]	growth of control Rat-2 cells expressing GFP alone ([6]; 3 μM)	IC50 [7] [nM]	IC50 (Hck-YF) [nM]	IC50 values for inhibition of osteoclast differentiation (in words) [8]	inhibition of osteoclast differentiation compared with BMM (RAW 264.7 cells; RAW 264.7, RANKL and VEGF)
Nc1[nH]nc2nnc(-c3c(-c4ccccc4)nn4ccccc34)cc12 [FR180204]	did not influence																
COc1cc(N2CCC(N3CCN(C)CC3)CC2)ccc1Nc1ncc(Cl)c(Nc2ccccc2S(=O)(=O)C(C)C)n1 [TAE684]		0.3	very low potency	> 50	Complete loss	600	> 50	400	only minimal inhibition	Complete loss	only slightly reduced	50	completely abolished	685	> 10000	submicromolar range	Very similar results
